“And” between values parts separate entries of the source, which are not always exact repeats. Equal entries are not always repeated. Where two headings read alike, the source gives them in different places.
Experiments:
DLBCL (GBC) cell lines = test: Combination of BO-1055 with PUH71, TT46, bortezomib, doxorubicin (Table 25); assay type: cell-based; conditions: Homo sapiens, read-out: IC50 single agent
Z-138 [1] = test: Combination with BO-1055, MCL (Tables 28, 29); assay type: cell-based, human; conditions: Z-138; combo-1 BO-1055 variable, combo-2 partner variable
Granta = test: Combination with BO-1055, MCL (Tables 28, 29); assay type: cell-based, human; conditions: Granta; combo-1 BO-1055 variable, combo-2 partner variable
REC-1 = test: Combination with BO-1055, MCL (Tables 28, 29); assay type: cell-based, human; conditions: REC-1; combo-1 BO-1055 variable, combo-2 partner variable
Mino [2] = test: Combination with BO-1055, MCL (Tables 28, 29); assay type: cell-based, human; conditions: Mino; combo-1 BO-1055 variable, combo-2 partner variable
NECB1 = test: Combination with BO-1055, MCL (Tables 28, 29); assay type: cell-based, human; conditions: NECB1; combo-1 BO-1055 variable, combo-2 partner variable
LY1 = test: Cytotoxicity DLBCL; conditions: read-out: cytotoxicity IC50; LY1, DLBCL GCB
Experimental: (§1) After 72 hours, the cultures were pulsed with Alamar Blue overnight, and the fluorescent intensity of resulted cultures was measured by a Synergy H1 plate-reader (BioTek Inc).

Ly3 (OCI-LY3) = test: Cytotoxicity DLBCL; conditions: read-out: cytotoxicity IC50; LY3, DLBCL ABC
Experimental: as §1

Ly8 = test: Cytotoxicity DLBCL; conditions: read-out: cytotoxicity IC50; LY8, DLBCL GCB
Experimental: as §1

Ly18 = test: Cytotoxicity DLBCL; conditions: read-out: cytotoxicity IC50; LY18, DLBCL GCB
Experimental: as §1

SUDHL-4 = test: Cytotoxicity DLBCL; conditions: read-out: cytotoxicity IC50; SUDHL-4, DLBCL GCB
Experimental: as §1

SUDHL-6 = test: Cytotoxicity DLBCL; conditions: read-out: cytotoxicity IC50; SUDHL-6, DLBCL GCB
Experimental: as §1

Toledo = test: Cytotoxicity DLBCL; conditions: read-out: cytotoxicity IC50, DLBCL GCB
Experimental: as §1

Karpas-422 = test: Cytotoxicity DLBCL; conditions: read-out: cytotoxicity IC50; Karpas-422, DLBCL GCB
Experimental: as §1

HBL1 = test: Cytotoxicity DLBCL; conditions: read-out: cytotoxicity IC50; HBL1, DLBCL ABC
Experimental: as §1

U2932 = test: Cytotoxicity DLBCL; conditions: read-out: cytotoxicity IC50; U2932, DLBCL ABC
Experimental: as §1

SUDHL-5 = test: Cytotoxicity DLBCL; conditions: read-out: cytotoxicity IC50; SUDHL-5, DLBCL GCB
JEKO-1 = test: Cytotoxicity mantle cell lymphoma
Experimental: as §1

Z-138 [3] = test: Cytotoxicity mantle cell lymphoma; conditions: read-out: cytotoxicity IC50; Z-138, mantle cell lymphoma
Experimental: as §1

Mino [4] = test: Cytotoxicity mantle cell lymphoma; conditions: read-out: cytotoxicity IC50; Mino, mantle cell lymphoma
Experimental: as §1

Granta-519 = test: Cytotoxicity mantle cell lymphoma; conditions: read-out: cytotoxicity IC50; Granta-519, mantle cell lymphoma
Experimental: as §1

NECB-1 = test: Cytotoxicity mantle cell lymphoma; conditions: read-out: cytotoxicity IC50; NECB-1, mantle cell lymphoma
Experimental: as §1

[5] = test system: spontaneous murine B-cell lymphoma; test: Cytotoxicity, with or without MS5 stromal cells; conditions: read-out: cytotoxicity IC50; murine BCL, spontaneous NSG CD19+, no stromal support
[6] = test system: 16HBE SV40+ bronchial epithelium; assay type: cell-based, human
[7] = test system: BEAS2B SV40 bronchial epithelium; assay type: cell-based, human
BMMSC BM mesenchyme = test: Cytotoxicity normal tissue 72 hr; assay type: cell-based, human
HS27 adult BM stroma = assay type: cell-based, human
[8] = test system: MRC5 fetal lung fibroblast; assay type: cell-based, human
[9] = test system: IMR90 fetal lung myofibroblast; test: Cytotoxicity normal tissue 72 hr; assay type: cell-based, human
[10] = test system: Cord Blood CFC (CFU-GM, BFU-E, CFU-C); assay type: cell-based, human
CALU-1 = assay type: cell-based, human
CALU-3 = assay type: cell-based, human
CALU-6 = assay type: cell-based, human
H1395 = assay type: cell-based, human
H1650 = assay type: cell-based, human
H1666 = assay type: cell-based, human
H1755 = assay type: cell-based, human
H1781 = assay type: cell-based, human
H1975 = assay type: cell-based, human
H2228 = assay type: cell-based, human
H3122 = assay type: cell-based, human
H3255 = assay type: cell-based, human
H525 = assay type: cell-based, human
HCC364 = assay type: cell-based, human
HCC827 = assay type: cell-based, human
PC9 = assay type: cell-based, human
SK-LU-1 = assay type: cell-based, human
H1373 = assay type: cell-based, human
H596 = assay type: cell-based, human
H647 = assay type: cell-based, human
A549 = assay type: cell-based, human
EBC1 = assay type: cell-based, human
H1703 = assay type: cell-based, human
H520 = assay type: cell-based, human
HCC15 = assay type: cell-based, human
HCC2450 = assay type: cell-based, human
PC1 (jap) = assay type: cell-based, human
SK-MES-1 = assay type: cell-based, human
[11] = test system: normal human, murine or primate cell and tissue types; test: Cytotoxicity, panel of normal tissues (MTT, alamar blue); assay type: cell-based
[12] = test system: nude mice bearing prostate 22Rv/HL2 tumor xenografts; conditions: mouse, in vivo
[13] = test system: nude mice bearing prostate 22Rv/HL2; conditions: mouse, in vivo; as to BASO: test concentration or dose not given here; as to EOS: test concentration or dose not given here; as to LYM: test concentration or dose not given here; as to MONO: test concentration or dose not given here; as to NEU: test concentration or dose not given here; as to PLT: test concentration or dose not given here
[14] = test system: nude mice bearing prostate 22Rv/HL2; conditions: mouse, in vivo; remark: listed apart in the source; as to BASO: test concentration or dose not given here; as to EOS: test concentration or dose not given here; as to LYM: test concentration or dose not given here; as to MONO: test concentration or dose not given here; as to NEU: test concentration or dose not given here; as to PLT: test concentration or dose not given here

Question: Which results are given for `CC(C)NCCCn1c(Sc2cc3c(cc2I)OCO3)nc2c(N)ncnc21` [PUH71]?
Answer: IC50 (DLBCL (GBC) cell lines; Farage): 0.785 µM; IC50 (DLBCL (GBC) cell lines; KARPAS-422, KARPAS-422): 1.52 µM; IC50 (DLBCL (GBC) cell lines; OCI-LY19, OCI-LY19): 0.221 µM; IC50 (DLBCL (GBC) cell lines; OCI-Ly8, OCI-LY8): 0.814 µM; IC50 (DLBCL (GBC) cell lines; OCI-Ly18, OCI-LY18): 0.274 µM; IC50 (DLBCL (GBC) cell lines; OCY-LY1): 0.208 µM; IC50 (DLBCL (GBC) cell lines; OCY-LY7): 0.391 µM; IC50 (DLBCL (GBC) cell lines; PFEIFER): 0.335 µM; IC50 (DLBCL (GBC) cell lines; SU-DHL-4, SUDHL4): 0.379 µM; IC50 (DLBCL (GBC) cell lines; SU-DHL-5, SUDHL5): 0.336 µM; IC50 (DLBCL (GBC) cell lines; SU-DHL-6, SUDHL6): 0.672 µM; IC50 (DLBCL (GBC) cell lines; Toledo): 10.9 µM; interaction with BO-1055 (Z-138 [1]): synergistic with BO-1055 in both combinations; interaction with BO-1055 (Granta): dually antagonistic; interaction with BO-1055 (REC-1): antagonistic against REC-1 in both combinations; interaction with BO-1055 (Mino [2]): dually synergistic; interaction with BO-1055 (NECB1): synergistic with BO-1055 against NECB1 in combo-1 and antagonistic in combo-2; IC50 (LY1): 0.26 µM and 0.308 µM; IC50 (Ly3 (OCI-LY3)): 2.78 µM; IC50 (Ly8): 0.81 µM; IC50 (Ly18): 0.27 µM; IC50 (SUDHL-4): 0.2 µM; IC50 (SUDHL-6): 0.05 µM; IC50 (Toledo): 2.66 µM; IC50 (Karpas-422): 0.45 µM; IC50 (HBL1): 1.67 µM; IC50 (U2932): 0.49 µM; IC50 (SUDHL-5): 0.41 µM; IC50 (JEKO-1; JEKO-1, 72 hr (Table 27)): 0.31 µM; IC50 (JEKO-1; read-out: cytotoxicity IC50, JEKO-1, mantle cell lymphoma): 0.26 µM; IC50 (Z-138 [3]): 0.06 µM; IC50 (Mino [4]): 0.26 µM; IC50 (Granta-519): 1.22 µM; IC50 (NECB-1): 1.66 µM; IC50 [5]: 0.24 µM

Question: With `N.N.O=C([O-])C1(C(=O)[O-])CCC1.[Pt+2]` [Carboplatin] as the compound, how does the IC50 [6] read?
Answer: 35.5 µM

Question: What about the IC50 [7] of the same compound?
Answer: 120 µM

Question: What about the IC50 (BMMSC BM mesenchyme) of the same compound?
Answer: 32.8 µM

Question: What about the IC50 (HS27 adult BM stroma) of the same compound?
Answer: 35.3 µM

Question: And the IC50 [8]?
Answer: 210 µM

Question: What about the IC50 [9] of the same compound?
Answer: 1000 µM

Question: What about the IC50 [10] of the same compound?
Answer: 1.7 µM

Question: What about the IC50 (CALU-1) of the same compound?
Answer: 96.2 µM

Question: What about the IC50 (CALU-3) of the same compound?
Answer: 84.5 µM

Question: And the IC50 (CALU-6)?
Answer: 14.7 µM

Question: And the IC50 (H1395)?
Answer: 17.4 µM

Question: What about the IC50 (H1650) of the same compound?
Answer: 69.7 µM

Question: And the IC50 (H1666)?
Answer: 90.7 µM

Question: What about the IC50 (H1755) of the same compound?
Answer: 41.4 µM

Question: And the IC50 (H1781)?
Answer: 3.99 µM

Question: What about the IC50 (H1975) of the same compound?
Answer: 60.2 µM

Question: And the IC50 (H2228)?
Answer: 8.62 µM

Question: What about the IC50 (H3122) of the same compound?
Answer: 109 µM

Question: What about the IC50 (H3255) of the same compound?
Answer: 24.3 µM

Question: What about the IC50 (H525) of the same compound?
Answer: 72.7 µM

Question: And the IC50 (HCC364)?
Answer: 172 µM

Question: What about the IC50 (HCC827) of the same compound?
Answer: 138 µM

Question: And the IC50 (PC9)?
Answer: 32.1 µM

Question: And the IC50 (SK-LU-1)?
Answer: 42.4 µM

Question: What about the IC50 (H1373) of the same compound?
Answer: 29.3 µM

Question: And the IC50 (H596)?
Answer: 34.1 µM

Question: What about the IC50 (H647) of the same compound?
Answer: 25.5 µM

Question: What about the IC50 (A549) of the same compound?
Answer: 41.3 µM

Question: What about the IC50 (EBC1) of the same compound?
Answer: 168 µM

Question: And the IC50 (H1703)?
Answer: ≥ 80 µM

Question: What about the IC50 (H520) of the same compound?
Answer: 75.6 µM

Question: What about the IC50 (HCC15) of the same compound?
Answer: 173 µM

Question: And the IC50 (HCC2450)?
Answer: 34.5 µM

Question: And the IC50 (PC1 (jap))?
Answer: 57.4 µM

Question: What about the IC50 (SK-MES-1) of the same compound?
Answer: 160 µM

Question: And the IC50 [11]?
Answer: ≥ 32.8 µM

Question: What about the “pathological change in heart, liver, spleen, lung and kidney” value [12] of the same compound?
Answer: no apparent pathological change

Question: And the ALT [13]?
Answer: 64.85 U/L

Question: What about the AST [13] of the same compound?
Answer: 119.15 U/L

Question: What about the BUN [13] of the same compound?
Answer: 21.17 mg/dL

Question: What about the CREA [13] of the same compound?
Answer: 0.31 mg/dL

Question: And the UA [13]?
Answer: 1.97 mg/dL

Question: And the BASO [14]?
Answer: 0.03 10^3/μL

Question: And the EOS [14]?
Answer: 0.13 10^3/μL

Question: And the LYM [14]?
Answer: 0.60 10^3/μL

Question: And the MONO [14]?
Answer: 0.07 10^3/μL

Question: And the NEU [14]?
Answer: 1.13 10^3/μL

Question: What about the PLT [14] of the same compound?
Answer: 369 10^3/μL

Question: What about the RBC [14] of the same compound?
Answer: 9.37 10^6/μL

Question: What about the WBC [14] of the same compound?
Answer: 1.97 10^3/μL

From patent US20200246284A1 (Academia Sinica, priority 2015, published 2020)
